Our source for the IC50 and inhibition values is US8853230B2, “Inhibitors of JAK” (Portola Pharmaceuticals, Inc., priority 2009, dated 2014).

The target of one assay is T1, TYK2 (Homo sapiens, UniProt P29597).
T1 construct: 5 μl of catalytic domain recombinant Kinase enzyme+Tyr peptide substrate (Invitrogen, Calif.); purchased Invitrogen
T1 sequence (P29597 897-1176 limits assumed): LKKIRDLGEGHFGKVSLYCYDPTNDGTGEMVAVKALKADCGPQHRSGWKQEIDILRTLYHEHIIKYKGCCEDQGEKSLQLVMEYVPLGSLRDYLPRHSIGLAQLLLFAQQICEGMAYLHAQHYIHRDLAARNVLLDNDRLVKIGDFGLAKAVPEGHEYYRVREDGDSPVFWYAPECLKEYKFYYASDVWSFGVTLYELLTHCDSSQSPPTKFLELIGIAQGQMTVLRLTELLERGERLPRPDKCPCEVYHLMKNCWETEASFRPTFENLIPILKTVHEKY
The assay can be described thus: Z'-LYTE kinase assay, TYK2 tyrosine phosphorylation activity. In kind it is biochemical. The gist of the method:
(§1)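 FRET-based Z′-LYTE format with recombinant catalytic-domain kinases and Tyr6 peptide substrate; compounds in 1% DMSO final, duplicate wells. Kinase reaction with ATP runs 1 h at room temperature, then protease development 1 h; fluorescence read at ex 400, em 445/520 nm. IC50 from 4-parameter logistic fit of percent phosphorylation versus uninhibited.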

The next assay addresses T2, JAK1 (Homo sapiens, UniProt P23458).
T2 construct: 5 μl of catalytic domain recombinant Kinase enzyme+Tyr peptide substrate (Invitrogen, Calif.); purchased Invitrogen
The assay can be described thus: Z'-LYTE kinase assay, JAK1 tyrosine phosphorylation activity. The following applies: read-out: JAK 1 IC50. In kind it is biochemical. The gist of the method:
as §1

Assay [1] concerns IL4-induced phospho STAT6 formation in Ramos B lymphocytes. The assay is described as follows: Inhibition of IL4-induced phospho STAT6 formation in Ramos B lymphocytes (flow cytometry). The note with it: Homo sapiens; for inhibition at 0.2 µM: 200 nM compound, read-out: % Inhibition of IL-4 Induced STAT6 Phosphorylation 200 nM; for inhibition at 1 µM: 1 μM compound, read-out: % Inhibition of IL-4 Induced STAT6 Phosphorylation 1 μM. It counts as cell-based, human. The procedure, abridged:
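Human Ramos B cells (0.5 million) pre-incubated 1 h at 37°C/5% CO2 with compound or DMSO, then stimulated with 1 ng/ml IL4 for 10 min. Cells were PFA-fixed, methanol-permeabilized and stained with Alexa-anti-phosphoSTAT6 (Y641); flow cytometry mean fluorescence gave percent inhibition of the IL4 signal.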
In general terms: A flow cytometer gives signals particle by particle.

A further assay addresses T3, JAK3 (Homo sapiens, UniProt P52333).
T3 construct: 5 μl of catalytic domain recombinant Kinase enzyme+Tyr peptide substrate (Invitrogen, Calif.); purchased Invitrogen
The assay can be described thus: Z'-LYTE kinase assay, JAK3 tyrosine phosphorylation activity. In kind it is biochemical. The procedure, abridged: as §1

For another assay, the target named is T4, JAK2 (Homo sapiens, UniProt O60674).
T4 construct: 5 μl of catalytic domain recombinant Kinase enzyme+Tyr peptide substrate (Invitrogen, Calif.); purchased Invitrogen
T4 sequence (O60674 849-1124 limits assumed): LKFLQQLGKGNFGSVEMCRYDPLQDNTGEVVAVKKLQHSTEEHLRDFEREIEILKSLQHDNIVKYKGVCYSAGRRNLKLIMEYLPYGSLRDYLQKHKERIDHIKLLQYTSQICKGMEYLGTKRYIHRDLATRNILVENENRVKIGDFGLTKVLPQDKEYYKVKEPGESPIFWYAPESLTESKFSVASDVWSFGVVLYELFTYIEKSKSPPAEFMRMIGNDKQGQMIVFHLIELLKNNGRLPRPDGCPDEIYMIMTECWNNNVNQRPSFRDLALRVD
The assay can be described thus: Z'-LYTE kinase assay, JAK2 tyrosine phosphorylation activity. In kind it is biochemical. The procedure, abridged: as §1

Where only a bound is given, the exact number is not on record here.

T2 sequence (P23458 875-1153 limits assumed): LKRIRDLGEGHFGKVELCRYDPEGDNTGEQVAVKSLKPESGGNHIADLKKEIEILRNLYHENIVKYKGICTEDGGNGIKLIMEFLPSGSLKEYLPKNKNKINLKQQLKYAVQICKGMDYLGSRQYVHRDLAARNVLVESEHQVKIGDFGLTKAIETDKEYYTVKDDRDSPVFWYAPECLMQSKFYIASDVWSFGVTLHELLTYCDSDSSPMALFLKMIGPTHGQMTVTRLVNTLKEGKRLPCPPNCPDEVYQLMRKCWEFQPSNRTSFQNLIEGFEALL
T3 sequence (P52333 822-1111 limits assumed): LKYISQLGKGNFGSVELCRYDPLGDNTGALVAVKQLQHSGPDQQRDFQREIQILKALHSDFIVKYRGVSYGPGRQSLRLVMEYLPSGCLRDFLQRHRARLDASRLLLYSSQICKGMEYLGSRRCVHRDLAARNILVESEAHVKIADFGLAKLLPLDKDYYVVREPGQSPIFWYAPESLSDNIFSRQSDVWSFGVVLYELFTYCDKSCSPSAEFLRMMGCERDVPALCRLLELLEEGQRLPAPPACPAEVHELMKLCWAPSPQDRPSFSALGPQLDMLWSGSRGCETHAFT

As a reminder, the IC50 is the point on the concentration scale where inhibition reaches its midpoint. In general, inhibition refers to the drop in the measured response relative to a control, in per cent. Consider `CC(=O)Nc1cccc(Nc2ncc(C(N)=O)c(NCC3CCNCC3)n2)c1` [Example 190, 2-(3-acetamidophenylamino)-4-(piperidin-4-ylmethylamino)pyrimidine-5-carboxamide], for which the IC50 lay within 10 to 100 nM at TYK2, 10 to 100 nM at JAK1, 1 to 10 nM against JAK3 and 10 to 100 nM on JAK2. In addition, the inhibition at 0.2 µM in assay [1] was 17%. The inhibition at 1 µM in assay [1] was 39.3%.
In the case of `C[C@@H](Nc1nc(Nc2ccc(Cl)c(NC(N)=O)c2)ncc1C(N)=O)c1ccccc1` [Example 193, (R)-2-(4-chloro-3-ureidophenylamino)-4-(1-phenylethylamino)pyrimidine-5-carboxamide], the half-inhibitory concentration (IC50) was 100 to 1000 nM at TYK2, 100 to 1000 nM at JAK1, 1 to 10 nM against JAK3 and 100 to 1000 nM on JAK2. Further, in assay [1], the inhibition at 0.2 µM came to 13.7%. Also, in assay [1], the inhibition at 1 µM came out at 51.3%.
For the compound `NC(=O)Nc1cc(Nc2ncc(C(N)=O)c(NCc3ccccc3)n2)ccc1Cl` [Example 194, 4-(benzylamino)-2-(4-chloro-3-ureidophenylamino)pyrimidine-5-carboxamide], the IC50 on TYK2 lay within 10 to 100 nM; at JAK1, 100 to 1000 nM; at JAK3, 1 to 10 nM; at JAK2, 100 to 1000 nM. For the same compound, the inhibition at 0.2 µM in assay [1] amounted to 10%. The inhibition at 1 µM in assay [1] stood at 22.7%.
On to `C[C@@H](Nc1nc(Nc2ccc(Cl)c(NC(=O)N(C)C)c2)ncc1C(N)=O)c1ccccc1` [Example 195, (R)-2-(4-chloro-3-(3,3-dimethylureido)phenylamino)-4-(1-phenylethylamino)pyrimidine-5-carboxamide], for which the IC50 against TYK2 lay within 10 to 100 nM; on JAK1, 100 to 1000 nM; on JAK3, 1 to 10 nM; at JAK2, 10 to 100 nM. In assay [1], the inhibition at 0.2 µM worked out at 3.3%. Moreover, the inhibition at 1 µM in assay [1] was 27.3%.
Regarding `CN(C)C(=O)Nc1cc(Nc2ncc(C(N)=O)c(NCc3ccccc3)n2)ccc1Cl` [Example 196, 4-(benzylamino)-2-(4-chloro-3-(3,3-dimethylureido)phenylamino)pyrimidine-5-carboxamide], the IC50 against TYK2 fell in the range of 10 to 100 nM; on JAK1, 100 to 1000 nM; at JAK3 it was 1 to 10 nM; on JAK2, 100 to 1000 nM. Moreover, the inhibition at 0.2 µM in assay [1] turned out to be 8.3%. Also, the inhibition at 1 µM in assay [1] is 65%.
On to `NC(=O)c1cnc(Nc2cccc(NC(=O)[C@H]3CCCO3)c2)nc1NCc1ccccc1` [Example 202, (R)-4-(benzylamino)-2-(3-(tetrahydrofuran-2-carboxamido)phenylamino)pyrimidine-5-carboxamide], for which the IC50 against TYK2 fell in the range of 1 to 10 nM; on JAK1 it was 10 to 100 nM; against JAK3, 1 to 10 nM; against JAK2, 10 to 100 nM. The inhibition at 0.2 µM in assay [1] was determined as 23.5%. Also, in assay [1], the inhibition at 1 µM stood at 48.5%.
Regarding `NC(=O)c1cnc(Nc2cccc(NC(=O)C3CCOC3)c2)nc1NCc1ccccc1` (stereo not drawn) [Example 203, 4-(benzylamino)-2-(3-(tetrahydrofuran-3-carboxamido)phenylamino)pyrimidine-5-carboxamide], the IC50 against TYK2 is 1 to 10 nM; at JAK1, 10 to 100 nM; against JAK3, 1 to 10 nM; against JAK2, 10 to 100 nM. Besides, in assay [1], the inhibition at 0.2 µM was 80%. Further, the inhibition at 1 µM in assay [1] was 106%.
With `NC(=O)c1cnc(Nc2cccc(NC(=O)[C@@H]3CCCO3)c2)nc1NCc1cccc(F)c1` [Example 208, (S)-4-(3-fluorobenzylamino)-2-(3-(tetrahydrofuran-2-carboxamido)phenylamino)pyrimidine-5-carboxamide], the IC50 lay in the range of 10 to 100 nM against TYK2, 10 to 100 nM at JAK1, 1 to 10 nM at JAK3 and 10 to 100 nM against JAK2. In addition, the inhibition at 0.2 µM in assay [1] is 22.7%. Further, the inhibition at 1 µM in assay [1] turned out to be 67.7%.
Consider `NC(=O)c1cnc(Nc2ccc(Cl)c(NC(=O)N3CCCCC3)c2)nc1NCc1ccccc1` [Example 209, 4-(benzylamino)-2-(4-chloro-3-(piperidine-1-carboxamido)phenylamino)pyrimidine-5-carboxamide], for which the IC50 was 100 to 1000 nM against TYK2, greater than 1000 nM on JAK1, 1 to 10 nM at JAK3 and greater than 1000 nM against JAK2. Besides, the inhibition at 0.2 µM in assay [1] was found to be 0.3%. In assay [1], the inhibition at 1 µM amounted to 1%.
Take `CN(C)[C@@H]1CCN(C(=O)Nc2cccc(Nc3ncc(C(N)=O)c(NCc4ccccc4)n3)c2)C1` [Example 210, (R)-4-(benzylamino)-2-(3-(3-(dimethylamino)pyrrolidine-1-carboxamido)phenylamino)pyrimidine-5-carboxamide]: the IC50 on TYK2 fell in the range of 1 to 10 nM; at JAK1 it was 10 to 100 nM; against JAK3 it was 1 to 10 nM; at JAK2, 10 to 100 nM. The inhibition at 0.2 µM in assay [1] came to 48%. Moreover, the inhibition at 1 µM in assay [1] was 81.7%.
As to `CC(=O)Nc1cccc(Nc2cc(NCc3ccccc3)c(C(N)=O)cn2)c1` [Example 213, 6-(3-acetamidophenylamino)-4-(benzylamino)nicotinamide], the IC50 was in the range of 100 to 1000 nM against TYK2, 100 to 1000 nM at JAK1, 10 to 100 nM on JAK3 and 100 to 1000 nM against JAK2. Further, in assay [1], the inhibition at 0.2 µM worked out at 11.3%. The inhibition at 1 µM in assay [1] came to 35.3%.
As for `CN1CCN(C(=O)Nc2cccc(Nc3ncc(C(N)=O)c(NCc4ccccc4)n3)c2)CC1` [Example 216, 4-(benzylamino)-2-(3-(4-methylpiperazine-1-carboxamido)phenylamino)pyrimidine-5-carboxamide], the 50% inhibitory concentration (IC50) at TYK2 is 1 to 10 nM; on JAK1, 10 to 100 nM; on JAK3, less than 1 nM; on JAK2, 10 to 100 nM. The inhibition at 0.2 µM in assay [1] amounted to 57.3%. In assay [1], the inhibition at 1 µM was 91%.
Turning to `NC(=O)c1cnc(Nc2cccc(NC(=O)N3CCOCC3)c2)nc1NCc1ccccc1` [Example 217, N-(3-(4-(benzylamino)-5-carbamoylpyrimidin-2-ylamino)phenyl)morpholine-4-carboxamide], the IC50 on TYK2 lay within 1 to 10 nM; on JAK1, 10 to 100 nM; on JAK3 it was 1 to 10 nM; against JAK2, 10 to 100 nM. Also, the inhibition at 0.2 µM in assay [1] stood at 61.3%. Moreover, in assay [1], the inhibition at 1 µM was determined as 92%.
Take `NC(=O)c1cnc(Nc2cccc(NC(=O)N3CCCCC3)c2)nc1NCc1ccccc1` [Example 218, 4-(benzylamino)-2-(3-(piperidine-1-carboxamido)phenylamino)pyrimidine-5-carboxamide]: the IC50 on TYK2 was in the range of 1 to 10 nM; on JAK1, 10 to 100 nM; on JAK3, 1 to 10 nM; at JAK2, 10 to 100 nM. In addition, the inhibition at 0.2 µM in assay [1] came out at 28.7%. Moreover, the inhibition at 1 µM in assay [1] turned out to be 76%.
As to `C[C@@H](Nc1nc(Nc2ccc(Cl)c(NC(=O)N3CCCC3)c2)ncc1C(N)=O)c1ccccc1` [Example 221, (R)-2-(4-chloro-3-(pyrrolidine-1-carboxamido)phenylamino)-4-(1-phenylethylamino)pyrimidine-5-carboxamide], the IC50 is 100 to 1000 nM at TYK2, greater than 1000 nM at JAK1, 10 to 100 nM at JAK3 and 100 to 1000 nM at JAK2. Besides, the inhibition at 0.2 µM in assay [1] turned out to be 2.3%. For the same compound, the inhibition at 1 µM in assay [1] stood at 6.3%.
`NC(=O)c1cnc(Nc2cccc(NC(=O)N3CCC3)c2)nc1NCc1ccccc1` [Example 222, 2-(3-(azetidine-1-carboxamido)phenylamino)-4-(benzylamino)pyrimidine-5-carboxamide]: the IC50 on TYK2 fell in the range of 1 to 10 nM; at JAK1, 10 to 100 nM; on JAK3, 1 to 10 nM; at JAK2, 10 to 100 nM. For the same compound, the inhibition at 0.2 µM in assay [1] stood at 47.7%. The inhibition at 1 µM in assay [1] came to 86.7%.
`NC(=O)c1cnc(Nc2ccc(Cl)c(NC(=O)N3CCC3)c2)nc1NCc1ccccc1` [Example 233, 2-(3-(azetidine-1-carboxamido)-4-chlorophenylamino)-4-(benzylamino)pyrimidine-5-carboxamide]: the IC50 is 10 to 100 nM on TYK2, 100 to 1000 nM on JAK1, 1 to 10 nM against JAK3 and 100 to 1000 nM against JAK2. For the same compound, the inhibition at 0.2 µM in assay [1] was 7%. In addition, the inhibition at 1 µM in assay [1] was 37.7%.
In the case of `NC(=O)c1cnc(Nc2ccc(F)c(NC(=O)N3CCC3)c2)nc1NCc1ccccc1` [Example 234, 2-(3-(azetidine-1-carboxamido)-4-fluorophenylamino)-4-(benzylamino)pyrimidine-5-carboxamide], the IC50 against TYK2 lay within 10 to 100 nM; at JAK1, 10 to 100 nM; against JAK3, 1 to 10 nM; against JAK2 it was 10 to 100 nM. In addition, the inhibition at 0.2 µM in assay [1] came out at 34.3%. For the same compound, in assay [1], the inhibition at 1 µM is 77%.
